In patent publication US20260364213A1, “RADIOLABELED COMPOUNDS OF TRIMETHOPRIM AND USES THEREOF” (THE TRUSTEES OF THE UNIVERSITY OF PENNSYLVANIA, priority 2023, published 2026):
Where two headings read alike, the source gives them in different places.

Tests used:
[1] = biological target: T1, eDHFR (Escherichia coli, UniProt P0ABQ4)
T1 sequence (P0ABQ4 1-159): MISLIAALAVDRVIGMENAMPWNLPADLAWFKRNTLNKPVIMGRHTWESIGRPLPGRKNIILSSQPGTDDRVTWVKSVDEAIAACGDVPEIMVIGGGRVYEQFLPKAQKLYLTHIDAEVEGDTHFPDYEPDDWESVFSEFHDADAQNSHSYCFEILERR

[2] = system: OVCAR8-eDHFR-Luc cells; assay: Kill assay (MTT) in OVCAR8-eDHFR-Luc cells; type: cell-based, human
Description: (§1) Following the same uptake protocol till washing after the third wash the cells were counted using cell counter and they were diluted to generate even number of cells/mL. […] We've applied the same blocked conditions used in the uptake assay. […] Then cells will be re-distributed into 96 well plates (2,000 cells/well) with fresh media to monitor cell proliferation by MTT assay on days 1, 3, 7 and 10. A total of 9 wells (3×3) were measured on the plate per sample per time point. To complete the assay cell media was removed and replaced with 50 μL of serum free media and 50 μL of MTT reagent. The plates were covered with tin foil and incubated at 37 °C for 3 hours. The plates were shaken at 200 rpm at 37 °C for 15 min. Using the microplate plate reader, sample absorbance was measured at 590 nm for 600 ms. Controls included [^131I]NaI treated cells and blocking with 10 μM parent TMP (unlabeled). An analogous procedure was used for the OVCAR8-eDHFR-Luc kill assay with different doses (1.85-37 MBq) and treatment times.
To investigate the therapeutic potential of m[^131I]mI-TMP 5b in tumor cell lines, OVCAR8 eDHFR+ cells were exposed to varying doses (ranging from 1.85-37 MBq) of the radiotracer of 5b at different incubation times. Different conditions were employed to assess the selective therapeutic effect of the radio tracer on eDHFR+ cells. To determine the specific killing of eDHFR+ tumor cells, blocked conditions were analyzed. The cell viability of compound 5b-treated cells was also compared with the cells exposed to [^131I]I—Na. Additionally, untreated cells were used as controls. The MTT assay was used to measure the cell viability of the cells under the aforementioned conditions on days 1, 3, 7, and 12.
OVCAR8-eDHFR-Luc+ cells were treated with 1.85 and 18.5 MBq of m[^131I]mI-TMP 5b and [^131I]I—Na, incubated for 1 hour. […] The cell viability of the compound 5b-treated cells was similar to cells under blocked, [^131I]NaI, and no drug conditions. See, FIG. 2A. […] See, FIG. 2B. Based on the results obtained, a continued dose escalation was considered to better understand the therapeutic window. Finally, OVCAR_eDHFR+ cells were tested with 37 MBq dose of m[^131I]mI-TMP.

[3] = biological target: T1, eDHFR; type: cell-based; parameters: in CAR T cells fused to C-terminus of CD3zeta of FAP-CAR; settings: for uptake in eDHFR+ CAR T cells compared to NTD cells: 0.074 MBq, 60 min at 37 °C, FAP-CAR-eDHFR (DF-BFP), day 8 of T cell expansion, 60 min
Description: Primary human T cells were sourced from healthy volunteers through the Human Immunology Core at the University of Pennsylvania. All specimens were obtained following institutional review board-approved protocols and informed consent from the volunteers. Bulk T cells were activated and expanded following established methods and subsequently, either pTRPE-FAP CAR-eDHFR DF or pTRPE-FAP CAR-eDHFR DF-T2A-BFP (7) lentivirus was introduced to the activated T cells 16 hours post-activation at a multiplicity of infection (MOI) of 5. The T cells were then expanded for a period of 10 days. Transduced CAR T cells were incubated with Alexa Fluor 647 AffiniPure F(ab′2) fragment goat anti-mouse immunoglobulin G (Jackson ImmunoResearch Laboratories) for half an hour at room temperature. Following incubation, stained cells were washed 3*100 μL with FACS buffer (2% bovine serum albumin in PBS, Invitrogen). The washed cells were analyzed using a flow cytometer (LSR II, BD Biosciences) to detect CAR and/or BFP expression. FlowJo software was used to analyze the flow data.
Next, the uptake radio-iodinated probe 5b was evaluated in primary human CAR-T cells. CAR-T cells were engineered to express eDHFR which is fused directly to the C-terminus of the signaling CD3zeta domain of the fibroblast activation protein (FAP) CAR. […] After incubation, the cells were centrifuged at 1200 rpm and were washed thrice with cold PBS (Corning). Subsequently, the cell pellet was resuspended in 1% DMSO/PBS and divided into 3 technical replicates of 100 μL each. The uptake of radiotracer was quantified using a gamma counter (PerkinElmer). The final uptake was expressed as a ratio of % ID normalized per […] cells (% ID/million cells). An about 15 fold more uptake in eDHFR+ cells was observed as compared to NTD cells. See, FIGS. 6A and 6B. The specificity is further assessed by comparing with FAP_CAR_eDHFR(df) which has low eDHFR expression. Less uptake of radiotracer 5b was observed as compared to high expressing eDHFR FAP_CARs.
[^131I]I-TMP in CAR T cells. […] In this case, two different fibroblast activation protein (FAP) CAR T cell constructs that express eDHFR fused directly to the C-terminus of the signaling CD3zeta domain of the CAR were used (7) (FIGS. 13F and 13G). […] There was ~15-fold more uptake in FAP-CAR-eDHFR-DF-BFP in comparison to NTD cells at day 8 of T cell expansion (FIG. 13A).

[4] = biological target: T1, eDHFR; settings: eDHFR+ cells pre-incubated with 10 μM unlabeled TMP
[5] = system: HCT116 eDHFR-Luc cells; assay: Kill assay (MTT) in HCT116 eDHFR-Luc cells; type: cell-based, human; settings: 3.7 MBq; for cell growth at day 10: in comparison to blocked conditions
Description: as §1
Despite lower uptake in HCT116 cells, cell viability was measured on days 1, 3, 7, and 10 using the MTT assay and compared with blocked, no drug and [^131I]I—Na treated cells. […] See, FIG. 3A. […] See, FIG. 3B.

[6] = biological target: T1, eDHFR; type: cell-based; settings: I45 mesothelioma cells, eDHFR-FLAG vs WT; 60 min at 37 °C
Text: See, FIG. 1E. […] See, FIG. 1F.

SMILES | uptake under blocked conditions ([1]; OVCAR8 eDHFR cells preincubated with excess of TMP) | cytotoxic effect / cell viability ([2]; 1.85 MBq, 1 hour) | cell viability under blocked conditions ([2]; 18.5 MBq, 1 h, cells treated with the blocking agent (10 μM TMP)) | cytotoxic effect / cell viability ([2]; 18.5 MBq, 1 h, viability to day 12) | retention in washout study ([3]; FAP_CAR_eDHFR cells, after 5 h) | uptake in FAP_CAR_eDHFR(df) with low eDHFR expression ([3]; compared to high expressing eDHFR FAP_CARs) | uptake under blocked conditions [4] | cytotoxic effect ([5]; 2 hours incubation) | cell viability at day 7 ([5]; 4 hours incubation) | cytotoxic effect ([5]; 4 hours incubation, compared to blocked cells) | cell growth at day 10 ([5]; 4 hours incubation) | tracer uptake in eDHFR+ cells compared to WT cells ([1]; OVCAR8-eDHFR-Luc vs OVCAR8 WT, 0.037 MBq, 1 hour) | cytotoxic effect ([2]; 37 MBq, also with 20 minutes incubation, blocked cells behaved the same) | uptake in eDHFR+ CAR T cells compared to NTD cells [3] | uptake in eDHFR+ CAR T cells compared to NTD cells ([3]; listed as [^131I]I-TMP) | uptake in CAR T cells, earlier day of expansion ([3]; earlier day of expansion (day 5)) | uptake in eDHFR+ cells compared to wild type [6]
COc1cc(Cc2cnc(N)nc2N)cc(I)c1OC [[^131I]mI-TMP, 5-(3-iodo-4,5-dimethoxybenzyl)pyrimidine-2,4-diamine] | reduced uptake | did not exhibit any cytotoxic effects/decreased viability | comparable viability to those under no treatment or [^131I]I—Na conditions | strong cytotoxic effects, and thus no cell regrowth/significantly lower viability was observed at day 7 and even at day 12 | strong internalization of compound 5b even after 5 h | Less uptake | reduced uptake | did not exhibit any cytotoxic effect | did not show any viability on day 7 | demonstrated a cytotoxic effect | mild growth at day 10 |  |  |  |  |  | 
COc1cc(Cc2cnc(N)nc2N)cc([131I])c1OC [[^131I]mI-TMP, 5-(3-iodo-4,5-dimethoxybenzyl)pyrimidine-2,4-diamine] |  |  |  |  |  |  |  |  | no cell regrowth at day 7 |  | mild regrowth was observed at day 10 and beyond | ~ 25 fold | non-specific cell killing | about 15 fold | ~ 15 fold | ~ 3 fold | ~ 80 fold
